Test [1] concerns antibodies in sera from SARS patients (sera 1a, 1b, 2, 6, 37, 62, London, SARS-yellow, SARS-green). The test is classed as binding, human. The arrangement: Binding of serum 6 to linear peptides of protein X1 of SARS-CoV Urbani / Binding of serum 37 to linear peptides of protein X1 of SARS-CoV Urbani / Binding of serum 6 to looped/cyclic peptide (PEPSCAN-ELISA) / Binding of serum 37 to looped/cyclic peptide (PEPSCAN-ELISA) / Binding of serum 37 to looped/cyclic peptides of protein X1 of SARS-CoV Urbani / Binding of serum 6 to linear peptides of protein X2 / Binding of serum 37 to linear peptides of protein X2 / Binding of serum 37 to looped/cyclic peptides of protein X2 of SARS-CoV Urbani / Binding of serum 6 to linear peptides of protein M of SARS-CoV Urbani / Binding of serum 37 to linear peptides of protein M of SARS-CoV Urbani / Binding of serum 6 to looped/cyclic peptides of protein M of SARS-CoV Urbani / Binding of serum 37 to looped/cyclic peptides of protein M of SARS-CoV Urbani / Binding of serum 6 to linear peptides of protein X3 of SARS-CoV Urbani / Binding of serum 37 to linear peptides of protein X3 of SARS-CoV Urbani / Binding of serum 37 to looped/cyclic peptides of protein X3 of SARS-CoV Urbani / Binding of serum 6 to linear peptides of protein X4 of SARS-CoV Urbani / Binding of serum 37 to linear peptides of protein X4 of SARS-CoV Urbani / Binding of serum 37 to looped/cyclic peptides of protein X4 of SARS-CoV Urbani / Binding of serum 6 to linear peptides of protein X5 of SARS-CoV Urbani / Binding of serum 37 to linear peptides of protein X5 of SARS-CoV Urbani / Binding of serum 37 to looped/cyclic peptides of protein X5 of SARS-CoV Urbani / Binding of serum 6 to linear peptides of protein N of SARS-CoV Urbani / Binding of serum 37 to linear peptides of protein N of SARS-CoV Urbani / Binding of serum 6 to linear peptide (PEPSCAN-ELISA) / Binding of serum 1a to looped/cyclic peptides of protein N of SARS-CoV Urbani / Binding of serum 1b to looped/cyclic peptides of protein N of SARS-CoV Urbani / Binding of serum 2 to looped/cyclic peptides of protein N of SARS-CoV Urbani / Binding of serum 6 to looped/cyclic peptides of protein N of SARS-CoV Urbani / Binding of serum 37 to looped/cyclic peptides of protein N of SARS-CoV Urbani / Binding of serum 62 to looped/cyclic peptides of protein N of SARS-CoV Urbani / Binding of serum London to looped/cyclic peptides of protein N of SARS-CoV Urbani / Binding of serum SARS-green to looped/cyclic peptides of protein N of SARS-CoV Urbani: unit not given here.

Test [2] concerns rabbit serum obtained by immunizing a rabbit with the SARS-CoV strain Frankfurt 1. The test is classed as binding. More on the design: Binding of a rabbit serum to linear peptides / Binding of a rabbit serum to looped peptides / Rabbit serum linear peptides / Rabbit serum looped peptides / Binding of a rabbit serum to linear peptides of protein N of SARS-CoV Urbani (Rabbit serum linear peptides) / Binding of a rabbit serum to looped/cyclic peptides of protein N of SARS-CoV Urbani (Rabbit serum looped peptides): unit not given here.

For test [3], the system named is control sera (pooled serum of ten healthy LUMC hospital workers; commercial negative donor pooled serum from the Dutch bloodbank). The format is binding, human. More on the design: Binding of Control serum LUMC to linear peptides / Binding of Control serum Blood-bank to linear peptides / Binding of Control serum LUMC to looped peptides / Binding of Control Serum Blood-Bank to Looped peptides / Binding of Control serum LUMC to linear peptides of the protein M of SARS-CoV Urbani / Binding of Control serum Blood-bank to linear peptides of the protein M of SARS-CoV Urbani / Binding of Control serum LUMC to looped peptides of the protein M of SARS-CoV Urbani / Binding of Control Serum Blood-Bank to Looped peptides of the protein M of SARS-CoV Urbani: unit not given here.

In the case of IILFLTLIVFTSCEL, in test [1], the “Binding of serum 1a to linear peptides of protein X4 of SARS-CoV Urbani” value was determined as 0.8, the “Binding of serum 1a to looped/cyclic peptides of protein X4 of SARS-CoV Urbani” value is reported as 0.7, the “Binding of serum 1b to linear peptides of protein X4 of SARS-CoV Urbani” value is recorded as 0.8 and the “Binding of serum 1b to looped/cyclic peptides of protein X4 of SARS-CoV Urbani” value worked out at 0.1. In addition, in test [1], the “Binding of serum 2 to linear peptides of protein X4 of SARS-CoV Urbani” value came out at 0.6, the “Binding of serum 2 to looped/cyclic peptides of protein X4 of SARS-CoV Urbani” value stood at 0.6, the “Binding of serum 6 to linear peptides of protein X4 of SARS-CoV Urbani” value is listed as 0.5 and the “Binding of serum 6 to looped/cyclic peptides of protein X4 of SARS-CoV Urbani” value is listed as 0.5. Also, in test [1], the “Binding of serum 37 to linear peptides of protein X4 of SARS-CoV Urbani” value stood at 0.9, the “Binding of serum 37 to looped/cyclic peptides of protein X4 of SARS-CoV Urbani” value is 0.7, the “Binding of serum 62 to linear peptides of protein X4 of SARS-CoV Urbani” value turned out to be 0.8 and the “Binding of serum 62 to looped/cyclic peptides of protein X4 of SARS-CoV Urbani” value is listed as 0.7. Besides, in test [1], the “Binding of serum London to linear peptides of protein X4 of SARS-CoV Urbani” value was determined as 0.7, the “Binding of serum London to looped/cyclic peptides of protein X4 of SARS-CoV Urbani” value is on record as 0.2, the “Binding of serum SARS-green to linear peptides of protein X4 of SARS-CoV Urbani” value is 0.6 and the “Binding of serum SARS-green to looped/cyclic peptides of protein X4 of SARS-CoV Urbani” value was determined as 0.4. In test [1], the “Binding of serum SARS-yellow to linear peptides of protein X4 of SARS-CoV Urbani” value amounted to 0.7 and the “Binding of serum SARS-yellow to looped/cyclic peptides of protein X4 of SARS-CoV Urbani” value is 0.6. Also, in test [2], the “Rabbit serum linear peptides” value turned out to be 0.8 and the “Rabbit serum looped peptides” value came out at 0.5. Moreover, in test [3], the “Binding of Control Serum Blood-Bank to Looped peptides” value is given as 0.7, the “Binding of Control serum Blood-bank to linear peptides” value is 0.7, the “Binding of Control serum LUMC to linear peptides” value is 0.9 and the “Binding of Control serum LUMC to looped peptides” value amounted to 0.6.

Turning to ILLNVPLRGTIVTRP, in test [1], the “Binding of serum 1a to linear peptides of protein M of SARS-CoV Urbani” value is given as 0.6, the “Binding of serum 1b to linear peptides of protein M of SARS-CoV Urbani” value was found to be 0.4, the “Binding of serum 2 to linear peptides of protein M of SARS-CoV Urbani” value turned out to be 0.4 and the “Binding of serum 6 to linear peptides of protein M of SARS-CoV Urbani” value was determined as 0.2. In test [1], the “Binding of serum 37 to linear peptides of protein M of SARS-CoV Urbani” value was 0.4, the “Binding of serum 62 to linear peptides of protein M of SARS-CoV Urbani” value is listed as 0.4, the “Binding of serum London to linear peptides of protein M of SARS-CoV Urbani” value stood at 0.3 and the “Binding of serum SARS-green to linear peptides of protein M of SARS-CoV Urbani” value turned out to be 0.4. Also, in test [1], the “Binding of serum SARS-yellow to linear peptides of protein M of SARS-CoV Urbani” value came out at 0.2; the “Recognition of the peptide by sera of SARS-CoV infected individuals, and form (linear, looped/cyclic) in which it is recognized” value is recorded as “recognized in looped/cyclic form”. In test [2], the “Rabbit serum linear peptides” value worked out at 0.0 and the “Rabbit serum looped peptides” value was 0.2. For the same sequence, in test [3], the “Binding of Control Serum Blood-Bank to Looped peptides of the protein M of SARS-CoV Urbani” value was 0.5, the “Binding of Control serum Blood-bank to linear peptides of the protein M of SARS-CoV Urbani” value is given as 0.6, the “Binding of Control serum LUMC to linear peptides of the protein M of SARS-CoV Urbani” value is reported as 0.4 and the “Binding of Control serum LUMC to looped peptides of the protein M of SARS-CoV Urbani” value is listed as 0.5.

Regarding ILVRYNTRGNTYSTA, in test [1], the “Binding of serum 1a to linear peptides of protein X5 of SARS-CoV Urbani” value was found to be 0.7, the “Binding of serum 1a to looped/cyclic peptides of protein X5 of SARS-CoV Urbani” value is given as 0.5, the “Binding of serum 1b to linear peptides of protein X5 of SARS-CoV Urbani” value is on record as 0.4 and the “Binding of serum 1b to looped/cyclic peptides of protein X5 of SARS-CoV Urbani” value was found to be 0.3. Besides, in test [1], the “Binding of serum 2 to linear peptides of protein X5 of SARS-CoV Urbani” value is listed as 0.6, the “Binding of serum 2 to looped/cyclic peptides of protein X5 of SARS-CoV Urbani” value came to 0.6, the “Binding of serum 6 to linear peptides of protein X5 of SARS-CoV Urbani” value is on record as 0.7 and the “Binding of serum 6 to looped/cyclic peptides of protein X5 of SARS-CoV Urbani” value is listed as 0.6. Moreover, in test [1], the “Binding of serum 37 to linear peptides of protein X5 of SARS-CoV Urbani” value was found to be 0.6, the “Binding of serum 37 to looped/cyclic peptides of protein X5 of SARS-CoV Urbani” value is given as 0.4, the “Binding of serum 62 to linear peptides of protein X5 of SARS-CoV Urbani” value is 0.7 and the “Binding of serum 62 to looped/cyclic peptides of protein X5 of SARS-CoV Urbani” value is listed as 0.8. Besides, in test [1], the “Binding of serum London to linear peptides of protein X5 of SARS-CoV Urbani” value stood at 0.6, the “Binding of serum London to looped/cyclic peptides of protein X5 of SARS-CoV Urbani” value is 0.2, the “Binding of serum SARS-green to linear peptides of protein X5 of SARS-CoV Urbani” value was 0.5 and the “Binding of serum SARS-green to looped/cyclic peptides of protein X5 of SARS-CoV Urbani” value was found to be 0.3. For the same sequence, in test [1], the “Binding of serum SARS-yellow to linear peptides of protein X5 of SARS-CoV Urbani” value amounted to 0.2 and the “Binding of serum SARS-yellow to looped/cyclic peptides of protein X5 of SARS-CoV Urbani” value stood at 0.8. In test [2], the “Rabbit serum linear peptides” value is given as 0.9 and the “Rabbit serum looped peptides” value is recorded as 0.8. In test [3], the “Binding of Control Serum Blood-Bank to Looped peptides” value was determined as 0.4, the “Binding of Control serum Blood-bank to linear peptides” value was 0.7, the “Binding of Control serum LUMC to linear peptides” value turned out to be 0.5 and the “Binding of Control serum LUMC to looped peptides” value came to 0.6.

For IPLQASLPFGWLVIG, in test [1], the “Binding of serum 1a to linear peptides of protein X1 of SARS-CoV Urbani” value is 0.8, the “Binding of serum 1a to looped/cyclic peptide (PEPSCAN-ELISA)” value was found to be 0.6, the “Binding of serum 1b to linear peptides of protein X1 of SARS-CoV Urbani” value was 0.6 and the “Binding of serum 1b to looped/cyclic peptide (PEPSCAN-ELISA)” value turned out to be 0.4. In addition, in test [1], the “Binding of serum 2 to linear peptides of protein X1 of SARS-CoV Urbani” value amounted to 0.6, the “Binding of serum 2 to looped/cyclic peptide (PEPSCAN-ELISA)” value amounted to 0.4, the “Binding of serum 6 to linear peptides of protein X1 of SARS-CoV Urbani” value is listed as 0.5 and the “Binding of serum 6 to looped/cyclic peptide (PEPSCAN-ELISA)” value was found to be 0.3. Besides, in test [1], the “Binding of serum 37 to linear peptides of protein X1 of SARS-CoV Urbani” value worked out at 0.7, the “Binding of serum 37 to looped/cyclic peptide (PEPSCAN-ELISA)” value was determined as 0.5, the “Binding of serum 62 to linear peptides of protein X1 of SARS-CoV Urbani” value is 0.6 and the “Binding of serum 62 to looped/cyclic peptide (PEPSCAN-ELISA)” value is listed as 0.6. Moreover, in test [1], the “Binding of serum London to linear peptides of protein X1 of SARS-CoV Urbani” value is given as 0.3, the “Binding of serum London to looped/cyclic peptide (PEPSCAN-ELISA)” value was found to be 0.2, the “Binding of serum SARS-green to linear peptides of protein X1 of SARS-CoV Urbani” value was 0.4 and the “Binding of serum SARS-green to looped/cyclic peptide (PEPSCAN-ELISA)” value worked out at 0.3. Further, in test [1], the “Binding of serum SARS-yellow to linear peptides of protein X1 of SARS-CoV Urbani” value is recorded as 0.5 and the “Binding of serum SARS-yellow to looped/cyclic peptide (PEPSCAN-ELISA)” value is given as 0.3. Further, in test [2], the “Binding of a rabbit serum to linear peptides” value turned out to be 0.1 and the “Binding of a rabbit serum to looped peptides” value came to 0.5. In addition, in test [3], the “Binding of Control Serum Blood-Bank to Looped peptides” value was 0.6, the “Binding of Control serum Blood-bank to linear peptides” value was 0.7, the “Binding of Control serum LUMC to linear peptides” value is on record as 0.8 and the “Binding of Control serum LUMC to looped peptides” value worked out at 0.6.

The values are drawn from patent publication US20070128217A1 (priority 2003, published 2007).
